Data taken from US8916557B2, “Substituted 4-Aryl-N-phenyl-1,3,5-triazin-2-amines” (Bayer Intellectual Property GmbH, priority 2011, dated 2014).

Legend:
[1] = tested on: B16F10 mouse melanoma cells; assay: Proliferation assay (crystal violet), B16F10; format: cell-based; settings: B16-F10, read-out: Inhibition of B16F10 cell proliferation
Protocol: (§1) Cultivated tumour cells (NCI-H460, human non-small cell lung carcinoma cells, ATCC HTB-177; DU 145, hormone-independent human prostate carcinoma cells, ATCC HTB-81; HeLa-MaTu, human cervical carcinoma cells, EPO-GmbH, Berlin; HeLa-MaTu-ADR, multidrug-resistant human cervical carcinoma cells, EPO-GmbH, Berlin; HeLa human cervical tumour cells, ATCC CCL-2; Caco-2 human colorectal carcinoma, ATCC HTB-37; B16F10 mouse melanoma cells, ATCC CRL-6475) were plated at a density of 5000 cells/well (DU145, HeLa-MaTu-ADR), 3000 cells/well (NCI-H460, HeLa-MaTu, HeLa), 1500 cells/well (Caco-2), or 1000 cells/well (B16F10) in a 96-well multititer plate in 200 μL of their respective growth medium supplemented 10% fetal calf serum. After 24 hours, the cells of one plate (zero-point plate) were stained with crystal violet (see below), while the medium of the other plates was replaced by fresh culture medium (200 μl), to which the test substances were added in various concentrations (0 μM, as well as in the range of 0.001-10 μM; the final concentration of the solvent dimethyl sulfoxide was 0.5%). The cells were incubated for 4 days in the presence of test substances. Cell proliferation was determined by staining the cells with crystal violet: the cells were fixed by adding 20 μl/measuring point of an 11% glutaric aldehyde solution for 15 minutes at room temperature. After three washing cycles of the fixed cells with water, the plates were dried at room temperature. The cells were stained by adding 100 μl/measuring point of a 0.1% crystal violet solution (pH 3.0). After three washing cycles of the stained cells with water, the plates were dried at room temperature. The dye was dissolved by adding 100 μl/measuring point of a 10% acetic acid solution. The extinction was determined by photometry at a wavelength of 595 nm. The change of cell number, in percent, was calculated by normalization of the measured values to the extinction values of the zero-point plate (=0%) and the extinction of the untreated (0 μm) cells (=100%). The IC50 values were determined by means of a 4 parameter fit.

[2] = tested on: NCI-H460, human non-small cell lung carcinoma cells; assay: Proliferation assay (crystal violet), NCI-H460; format: cell-based; settings: read-out: Inhibition of H460 cell proliferation (activity range)
Protocol: as §1

[3] = tested on: HeLa human cervical tumour cells; assay: Proliferation assay (crystal violet), HeLa; format: cell-based; settings: read-out: Inhibition of HeLa cell proliferation
[4] = tested on: Caco-2 human colorectal carcinoma; assay: Proliferation assay (crystal violet), Caco-2; format: cell-based; settings: CACO-2 cells, read-out: Inhibition of CACO-2 cell proliferation
CDK9/CycT1 = target: T1, CDK9/CycT1 (Homo sapiens, UniProt P50750); assay: CDK9/CycT1 kinase assay (TR-FRET); format: biochemical; settings: Method 1, 10 μM ATP
T1 construct: Recombinant full-length His-tagged human CDK9 and CycT1; His; purchased Invitrogen PV4131; host or cells: insect cells
T1 sequence (P50750 whole entry): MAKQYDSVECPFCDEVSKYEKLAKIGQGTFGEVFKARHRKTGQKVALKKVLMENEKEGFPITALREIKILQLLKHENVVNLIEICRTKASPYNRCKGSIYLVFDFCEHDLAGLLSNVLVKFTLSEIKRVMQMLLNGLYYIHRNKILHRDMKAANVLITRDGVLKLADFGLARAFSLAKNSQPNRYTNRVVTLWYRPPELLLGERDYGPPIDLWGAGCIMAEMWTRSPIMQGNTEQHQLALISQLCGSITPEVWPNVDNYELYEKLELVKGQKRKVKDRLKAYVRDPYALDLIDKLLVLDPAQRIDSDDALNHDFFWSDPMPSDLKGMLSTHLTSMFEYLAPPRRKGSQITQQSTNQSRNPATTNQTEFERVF
T1 sequence (O60563 whole entry partner): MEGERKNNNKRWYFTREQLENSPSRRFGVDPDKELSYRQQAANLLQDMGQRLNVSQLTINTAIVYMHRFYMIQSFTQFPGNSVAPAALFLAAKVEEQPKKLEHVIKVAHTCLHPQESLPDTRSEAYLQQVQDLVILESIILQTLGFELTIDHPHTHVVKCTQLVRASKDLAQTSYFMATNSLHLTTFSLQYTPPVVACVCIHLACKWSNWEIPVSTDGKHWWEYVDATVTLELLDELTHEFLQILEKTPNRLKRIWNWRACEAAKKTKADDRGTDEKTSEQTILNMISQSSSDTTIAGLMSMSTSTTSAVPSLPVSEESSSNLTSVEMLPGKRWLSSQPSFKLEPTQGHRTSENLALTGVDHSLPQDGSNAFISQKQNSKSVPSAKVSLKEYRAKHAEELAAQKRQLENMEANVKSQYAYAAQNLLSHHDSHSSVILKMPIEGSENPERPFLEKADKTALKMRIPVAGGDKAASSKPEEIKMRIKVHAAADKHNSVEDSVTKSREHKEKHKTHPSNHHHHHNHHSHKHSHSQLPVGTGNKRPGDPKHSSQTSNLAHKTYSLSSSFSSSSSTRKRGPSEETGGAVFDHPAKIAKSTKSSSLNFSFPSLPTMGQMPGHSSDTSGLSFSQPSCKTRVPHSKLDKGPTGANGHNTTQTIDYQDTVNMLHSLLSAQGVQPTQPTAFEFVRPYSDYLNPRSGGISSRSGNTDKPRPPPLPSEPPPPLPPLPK
How it was run: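 Full-length His-tagged human CDK9/CycT1 (insect-cell expressed), 15 min compound pre-incubation, then 25 min at 22 °C with 10 µM ATP (final) and 1 µM biotinylated peptide (final) in Tris pH 8.0/MgCl2 buffer. Phospho-substrate detected by TR-FRET (anti-RB pSer807/pSer811, Eu anti-mouse IgG, streptavidin-XL665); 665/622 nm emission ratio as read-out.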

[5] = tested on: DU 145, hormone-independent human prostate carcinoma cells; assay: Proliferation assay (crystal violet), DU 145; format: cell-based; settings: DU145 cells, read-out: Inhibition of DU145 cell proliferation

| SMILES | IC50 [1] | IC50 [2] | IC50 [3] | IC50 [4] | IC50 (CDK9/CycT1) | IC50 [5] |
| --- | --- | --- | --- | --- | --- | --- |
| CS(=O)(=O)Cc1cccc(Nc2ncnc(-c3cccc4c3OCCC4)n2)c1 [Example 12, 4-(3,4-Dihydro-2H-chromen-8-yl)-N-{3-[(methylsulfonyl)methyl]phenyl}-1,3,5-triazin-2-amine] | 510 nM | 410 nM | 340 nM | 390 nM | 7 nM | 320 nM |
| CS(=O)(=O)Cc1cccc(Nc2ncnc(-c3cccc4c3OCCO4)n2)c1 [Example 18, 4-(2,3-Dihydro-1,4-benzodioxin-5-yl)-N-{3-[(methylsulfonyl)methyl]phenyl}-1,3,5-triazin-2-amine] | 640 nM | 730 nM | 530 nM | 690 nM | 8 nM | 530 nM |
| CS(=O)(=O)Cc1cccc(Nc2ncnc(-c3ccccc3OCc3cccc(Cl)c3)n2)c1 [Example 28, 4-{2-[(3-Chlorobenzyl)oxy]phenyl}-N-{3-[(methylsulfonyl)methyl]phenyl}-1,3,5-triazin-2-amine] | 390 nM | 370 nM | 360 nM | 320 nM | 3 nM | 420 nM |
| CS(=O)(=O)Cc1cccc(Nc2ncnc(-c3ccc(Cl)cc3OC3CCCC3)n2)c1 [Example 29, 4-[4-Chloro-2-(cyclopentyloxy)phenyl]-N-{3-[(methylsulfonyl)methyl]phenyl}-1,3,5-triazin-2-amine] | 640 nM | 730 nM | 530 nM | 690 nM | 610 nM | 530 nM |
| CCCCOc1cc(F)ccc1-c1ncnc(Nc2cccc(CS(C)(=O)=O)c2)n1 [Example 44, 4-(2-Butoxy-4-fluorophenyl)-N-{3-[(methylsulfonyl)-methyl]phenyl}-1,3,5-triazin-2-amine] | 570 nM | 440 nM | 340 nM | 1000 nM | 9 nM | 520 nM |
| CS(=O)(=O)Cc1cccc(Nc2ncnc(-c3ccc(F)cc3OCC3CC3)n2)c1 [Example 55, 4-[2-(Cyclopropylmethoxy)-4-fluorophenyl]-N-{3-[(methylsulfonyl)methyl]phenyl}-1,3,5-triazin-2-amine] | 960 nM | 490 nM | 840 nM | 400 nM | 15 nM | 570 nM |
| CS(=O)(=O)Cc1cccc(Nc2ncnc(-c3ccc(F)cc3OCCCC(F)(F)F)n2)c1 [Example 59, 4-[4-Fluoro-2-(4,4,4-trifluorobutoxy)phenyl]-N-{3-[(methylsulfonyl)methyl]phenyl}-1,3,5-triazin-2-amine] | 330 nM | 350 nM | 470 nM | 570 nM | 5 nM | 220 nM |
| CS(=O)(=O)Cc1cccc(Nc2ncnc(-c3ccc(F)cc3OCCF)n2)c1 [Example 61, 4-[4-Fluoro-2-(2-fluoroethoxy)phenyl]-N-{3-[(methylsulfonyl)methyl]phenyl}-1,3,5-triazin-2-amine] | 740 nM | 610 nM | 590 nM | 1100 nM | 8 nM | 480 nM |
| Cc1cccc(COc2cc(F)ccc2-c2ncnc(Nc3cccc(CS(C)(=O)=O)c3)n2)c1 [Example 83, 4-{4-Fluoro-2-[(3-methylbenzyl)oxy]phenyl}-N-{3-[(methylsulfonyl)-methyl]phenyl}-1,3,5-triazin-2-amine] | 440 nM | 380 nM | 510 nM | 740 nM | 5 nM | 380 nM |
| CS(=O)(=O)Cc1cccc(Nc2ncnc(-c3ccc(F)cc3OCc3cccc(Cl)c3)n2)c1 [Example 85, 4-{2-[(3-Chlorobenzyl)oxy]-4-fluorophenyl}-N-{3-[(methylsulfonyl)methyl]phenyl}-1,3,5-triazin-2-amine] | 450 nM | 360 nM | 320 nM | 560 nM | 7 nM | 410 nM |
| Cc1cc(COc2cc(F)ccc2-c2ncnc(Nc3cccc(CS(C)(=O)=O)c3)n2)ccn1 [Example 87, 4-{4-Fluoro-2-[(2-methylpyridin-4-yl)methoxy]-phenyl}-N-{3-[(methylsulfonyl)methyl]phenyl}-1,3,5-triazin-2-amine] | 370 nM | 340 nM | 320 nM | 730 nM | 6 nM | 300 nM |
| CS(=O)(=O)Cc1cccc(Nc2ncnc(-c3ccc(F)cc3OCc3ccncc3)n2)c1 [Example 89, 4-[4-Fluoro-2-(pyridin-4-ylmethoxy)phenyl]-N-{3-[(methylsulfonyl)methyl]phenyl}-1,3,5-triazin-2-amine] | 250 nM | 170 nM | 110 nM | 310 nM | 5 nM | 180 nM |
| CS(=O)(=O)Cc1cccc(Nc2ncnc(-c3ccc(F)cc3OCc3ccc(C#N)cc3)n2)c1 [Example 90, 4-({5-Fluoro-2-[4-({3-[(methylsulfonyl)methyl]phenyl}amino)-1,3,5-triazin-2-yl]phenoxy}methyl)-benzonitrile] | 320 nM | 60 nM | 110 nM | 310 nM | 3 nM | 280 nM |
